From patent US6391344B2, “Method of promoting synthesis of nerve growth factor” (Nagase & Company, Ltd., priority 1999, dated 2002) come the findings set out here.

The test system of this assay is Human glioblastoma cells (T98G, Cell line). The experiment in a line: Promotion of NGF synthesis: NGF content in culture supernatant by enzyme immunoassay. It is filed as cell-based. The following applies: for NGF Content in sample solution / content of NGF in the sample solution as compared with the systems not containing any effective ingredient: T98G cells; for NGF Content in sample solution: 4 days cultivation, mean ± standard deviation; for Relative NGF content: ratio of example solution to comparative example solution; for content of NGF in the sample solution as compared with the systems not containing any effective ingredient: result in words, both tested concentrations. Here is the method:
Human glioblastoma cells (T98G, Cell line) were seeded in a MEM medium containing fetal bovine serum (10%; Gibco), sodium pyruvate (×1; Gibco) and nonessential amino acids (×1; Gibco) in wells of a flat-bottom 96-well plate (Corning), in a cell density of 2×10^4/well, and cultivated in a CO2 incubator (37° C., 5% CO2) for 3 days. The medium was then replaced by an Opti-MEM medium (containing 5 mg/ml of bovine serum albumin). The cultivation was continued for further 6 days with replacing the medium at intervals of 3 days.
[…] After the cultivation, the supernatant was taken as a sample solution.
On the other hand, 1 ug/ml of an anti-NGF antibody (Promega) solution (50 ul) was added to each well of a 96-well microplate (Nunc), and the plate was allowed to stand overnight at 4° C. After washing the plate with PBS(−) (Nissui Pharmaceuticals), 1% of a bovine serum albumin (Sigma) solution (100 ul) was added to each well of the plate and the plate was allowed to stand at room temperature for 4 hrs. Subsequently, the plate was washed with PBS (−) and the above sample solution (50 ul) was added to each well of the plate. After the reaction at room temperature for one hour, the plate was washed with PBS (−).
Subsequently, 0.4 unit/ml of an beta-galactosidase-labeled anti-NGF antibody (Boehringer Mannheim) solution (50 ul) was added to each well of the plate, and allowed to react at room temperature for one hour. After washing the plate with PBS (−), 0.5 mg/ml of a 4-methylumbelliferyl-beta-D-galactoside solution (200 ul) was added to each well of the plate, and allowed to react overnight at room temperature. The fluorescence intensity of 4-methylumbelliferone produced was measured on a fluorescence plate reader, and the content of NGF contained in the sample solution was determined using a standard curve obtained from a standard solution (human beta-NGF; PEPRO TECH EC).

Setting [1] is: 20 uM effective ingredient in medium.
Where [2] appears, read: 100 uM effective ingredient in medium.

SMILES strings stand for the structures.

As to `CC(C)c1cc2c(c(O)c1O)[C@@]1(C(=O)O)CCCC(C)(C)C1CC2` (stereo partly shown) [Carnosic acid of formula (I), carnosic acid], the “NGF Content in sample solution” value reads like this: under setting [1], 46.0 ± 7.4 pg/mL; under setting [2], 158.5 ± 16.6 pg/mL. Besides, the “Relative NGF content” value by setting is: under setting [1], 7.2; under setting [2], 24.8.
With `CC(C)c1cc2c(c(O)c1O)[C@@]13CCCC(C)(C)C1C[C@@H]2OC3=O` (stereo partly shown) [Carnosol of formula (II), carnosol], under setting [1], the “NGF Content in sample solution” value is 35.4 ± 6.9 pg/mL and the “Relative NGF content” value is reported as 5.5. Also, under setting [2], the “NGF Content in sample solution” value was determined as 39.9 ± 2.3 pg/mL and the “Relative NGF content” value amounted to 6.2.
For `CC(C)c1cc2c(c(O)c1O)[C@@]1(C(=O)O)CCCC(C)(C)[C@@H]1CC2` [carnosic acid of the formula (I)], the “content of NGF in the sample solution as compared with the systems not containing any effective ingredient” value is “increases”.
`CC(C)c1cc2c(c(O)c1O)[C@@]13CCCC(C)(C)[C@@H]1C[C@@H]2OC3=O` [carnosol of the formula (II)]: the “content of NGF in the sample solution as compared with the systems not containing any effective ingredient” value is “increases”.
